The experiment addresses T1, VIPR2 (Homo sapiens, UniProt P41587).
T1 sequence (P41587 24-438): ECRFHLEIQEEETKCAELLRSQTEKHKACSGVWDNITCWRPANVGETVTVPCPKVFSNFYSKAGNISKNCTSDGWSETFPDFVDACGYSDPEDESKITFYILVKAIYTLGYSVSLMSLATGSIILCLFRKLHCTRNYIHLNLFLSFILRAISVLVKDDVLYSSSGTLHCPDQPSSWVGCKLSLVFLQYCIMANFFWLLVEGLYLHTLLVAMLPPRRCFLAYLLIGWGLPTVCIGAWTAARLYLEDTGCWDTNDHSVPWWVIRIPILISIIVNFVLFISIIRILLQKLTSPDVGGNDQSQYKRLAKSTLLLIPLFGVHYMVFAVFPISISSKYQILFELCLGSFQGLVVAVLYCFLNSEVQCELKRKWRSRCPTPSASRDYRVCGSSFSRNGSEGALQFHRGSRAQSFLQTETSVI
Put plainly: Inhibition of VIP-induced cAMP elevation (% Activity cAMP). In kind it is cell-based. The conditions noted are these: Batch 1. More on the design: expressed in transfected cells; host or cells: HEK293 cells transfected with VIPR2 in pCDNA3.1 (as described). Summed up:
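HEK293 cells stably transfected with human VIPR2 were incubated with inhibitor and VIP for 30 min, then cAMP was detected by HTRF after at least 1 h at room temperature. The 665/620 nm ratio ×10,000 was calculated.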

Molecules are shown by their SMILES.

Turning to `N#Cc1ccc(S(=O)(=O)NC[C@@H](O)C[C@@H](Cc2ccccc2)C(=O)N[C@H]2c3ccccc3C[C@H]2O)cc1` [C], testing at 0.5 µM gave an inhibition of 27.3%, the inhibition at 1 µM was 43.6% and at 5 µM the inhibition was 93.1%.
As for `CC(C)c1ccc(S(=O)(=O)NC[C@@H](O)C[C@@H](Cc2ccccc2)C(=O)N[C@H]2c3ccccc3C[C@H]2O)cc1` [Compound A10], the inhibition at 0.5 µM turned out to be 36.5%, the inhibition at 1 µM is 44.2% and the inhibition at 5 µM was 98.2%.
For `COc1ccc(S(=O)(=O)NC[C@@H](O)C[C@@H](Cc2ccccc2)C(=O)N[C@H]2c3ccccc3C[C@H]2O)cc1` [E] the same measures were 33.9%, 45.9% and 93.8%.
The matching figures for `O=C(N[C@H]1c2ccccc2C[C@H]1O)[C@H](Cc1ccccc1)C[C@H](O)CNS(=O)(=O)c1ccc(C(F)(F)F)cc1` [F]: 42%, 63.1% and 98.5%.
In turn, `Cc1ccc(S(=O)(=O)NC[C@@H](O)C[C@@H](Cc2ccccc2)C(=O)N[C@H]2c3ccccc3C[C@H]2O)cc1` [I] showed an inhibition at 0.5 µM of 42.2%, an inhibition at 1 µM of 63.5% and an inhibition at 5 µM of 98.2%.
The matching figures for `CC(=O)c1ccc(S(=O)(=O)NC[C@@H](O)C[C@@H](Cc2ccccc2)C(=O)N[C@H]2c3ccccc3C[C@H]2O)cc1` [K]: 38.6%, 61.1% and 96%.
